From PubChem BioAssay (NCI) come the findings set out here.

Test systems include NCI/ADR-RES ovarian; IGROV1 ovarian; SK-MEL-5 melanoma; ACHN renal; HT29 colon; PC-3 prostate; CAKI-1 renal; CCRF-CEM leukemia; MCF7 breast; HS 578T breast.
Experiment in all cases: DTP human tumour cell line panel, 48 h

“And” between values parts separate entries of the source, which are not always exact repeats. Equal entries are not always repeated.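 Growth conditions: 96-well plates. Treatment: test compound, 48 hours, 5 concentrations. Analysis: linear interpolation between bracketing concentrations; unreached endpoints set to highest concentration. GI50 marks 50% less growth. The concentration for full growth arrest is given as TGI.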

The GI50 is the concentration giving 50% growth inhibition. The term TGI denotes the concentration at which net growth stops. Low readings indicate more potent growth arrest, high ones less potent growth arrest. As to `O=c1c2c(nc3n1CCS3)[nH]c1ccccc12`, the GI50 with NCI/ADR-RES ovarian is above 100 µM; in the test on IGROV1 ovarian it was 17.8 µM; with SK-MEL-5 melanoma, 2.75 µM; with ACHN renal it was above 100 µM; in the test with HT29 colon, above 100 µM; in the test on PC-3 prostate, above 100 µM. Moreover, the GI50 in the test on CAKI-1 renal is 76.8 µM; in the test with CCRF-CEM leukemia, above 100 µM; in the test on MCF7 breast it was above 100 µM; in the test on HS 578T breast it was 73.6 µM. Further, the TGI in the test on NCI/ADR-RES ovarian, in the test with IGROV1 ovarian, in the test with SK-MEL-5 melanoma, with ACHN renal, in the test with HT29 colon and in the test on PC-3 prostate was above 100 µM in each case. The total growth inhibition concentration (TGI) in the test on CAKI-1 renal, with CCRF-CEM leukemia, with MCF7 breast and in the test with HS 578T breast was above 100 µM throughout.

For the compound `Cn1c([N+](=O)[O-])cnc1/C=C1\Oc2ccccc2C1=O`, the GI50 in the test on NCI/ADR-RES ovarian is 0.392 µM; with IGROV1 ovarian, 0.6 µM; with SK-MEL-5 melanoma, 0.234 µM; in the test with ACHN renal it was 0.197 µM; with HT29 colon, 0.203 µM; in the test on PC-3 prostate, 1.46 µM. The GI50 was 0.24 µM with CAKI-1 renal, 0.168 µM in the test on CCRF-CEM leukemia, 0.46 µM with MCF7 breast and 1.15 µM in the test on HS 578T breast. Moreover, the total growth inhibition concentration (TGI) in the test on NCI/ADR-RES ovarian was 4.45 µM; in the test on IGROV1 ovarian it was 5.87 µM; in the test on SK-MEL-5 melanoma, 0.727 µM; in the test with ACHN renal, 0.632 µM; in the test with HT29 colon, 0.629 µM; with PC-3 prostate, above 22.7 µM. Also, the TGI was found to be 0.601 µM with CAKI-1 renal, 1.38 µM with CCRF-CEM leukemia and 8.88 µM with MCF7 breast.

As for `COC(=O)CCc1cc(OC)c2c(c1)C(C(=O)OC)C(c1ccc(OC)c(OC)c1)O2` (stereo not given), the GI50 with NCI/ADR-RES ovarian is > 100 µM and 26.8 µM; in the test on IGROV1 ovarian, > 100 µM and 21.5 µM; in the test with SK-MEL-5 melanoma, > 100 µM and 12 µM; in the test on PC-3 prostate it was > 100 µM and 28.8 µM; in the test on CAKI-1 renal, > 100 µM and 45.5 µM; in the test with HS 578T breast it was > 100 µM and 43.4 µM. The TGI in the test with NCI/ADR-RES ovarian, in the test on IGROV1 ovarian, with SK-MEL-5 melanoma, in the test on ACHN renal, in the test with HT29 colon and with PC-3 prostate was above 100 µM in each case. The TGI in the test with CAKI-1 renal, in the test on CCRF-CEM leukemia, in the test with MCF7 breast and in the test with HS 578T breast was above 100 µM throughout.

For `O=S(=O)(NC1=NCCN1C(=S)SN1CCn2c1nsc2=S)c1ccc(Br)cc1`, the GI50 in the test on NCI/ADR-RES ovarian is above 100 µM; in the test with IGROV1 ovarian, 30.7 µM; in the test with SK-MEL-5 melanoma, 19.5 µM; with ACHN renal, 22.2 µM; in the test on HT29 colon it was 42.5 µM; in the test on PC-3 prostate, 30.8 µM. Moreover, the GI50 in the test with CAKI-1 renal is 12.6 µM; in the test on CCRF-CEM leukemia, 20.9 µM; with MCF7 breast, 31.7 µM; with HS 578T breast it was 21.4 µM. In addition, the TGI is above 100 µM in the test with NCI/ADR-RES ovarian; 95 µM with IGROV1 ovarian; 47.9 µM in the test on SK-MEL-5 melanoma; 73.6 µM with ACHN renal; above 100 µM in the test on HT29 colon; above 100 µM in the test on PC-3 prostate. For the same compound, the concentration for total growth inhibition (TGI) in the test with CAKI-1 renal was above 100 µM; with CCRF-CEM leukemia, 71.8 µM; in the test on MCF7 breast, above 100 µM; in the test with HS 578T breast, 67.2 µM.
